Data as given in patent US8481546B2, “CGRP receptor antagonist” (Bristol-Myers Squibb Company, priority 2010, dated 2013).
≈ marks a conversion by molar mass, not a printed value. Like-named read-outs stand apart in the source and are kept apart here.

Tests used:
Solution state stability = type: physicochemical
Experimental: The solution state stability of Compound I was evaluated as a function of temperature, pH, high intensity light (HIL), buffer concentration, and drug concentration.
Succinate buffer was used for all solutions. For samples exposed to light, a photostability chamber was used in accordance with ICH guidelines (1.2 million lux hour exposure to visible light and 200 watt hour/m^2 to UV). Analyses were performed at 4, 8 and 12 weeks.

[1] = tested on: CGRP-induced increases in marmoset facial blood flow; assay: Marmoset facial blood flow; type: in vivo, common marmosets (Callithrix jacchus)
Experimental: To evaluate the in vivo efficacy of novel CGRP receptor antagonists, marmosets receive a series of four intravenous injections of hαCGRP (at 45 min intervals). The first serves as a baseline control, and is followed by subcutaneous delivery of test article. The subsequent three CGRP challenges provide an assessment of functional CGRP antagonism in vivo.
Adult male and female common marmosets (Callithrix jacchus) weighing 350-650 g serve as subjects.
Animals are anesthetized by isoflurane inhalation in an induction chamber (4-5% rapid induction, maintained with 1-2.5%; Solomon et al., 1999). Anesthesia is maintained by delivering a constant supply of air:oxygen (50:50) and isoflurane via intubation and ventilation (with blood gas monitoring). Body temperature is maintained at 38±0.5° C. by placement on an automated temperature controlled surface with rectal probe. A small area of fur (approx. 1.5 cm square) is removed from one or both sides of the face by application of a depilatory cream and/or shaving. Surgical areas are clipped and prepared with betadine. An IV line is placed in the saphenous vein for the administration of test compounds and the CGRP receptor agonist hαCGRP. Additionally this IV line provides for withdrawal of blood samples (max 2.5 ml, 10%) for blood gas monitoring and analysis of compound plasma levels. A solution of 5% dextrose is administered IV in order to maintain blood sugar levels. Anesthesia depth is monitored by measuring blood pressure and heart rate using a non-invasive arm cuff method and a pulse oximeter, respectively. […] Microvascular blood flow is monitored by attaching a self adhesive laser Doppler flow probe to the facial skin. The probe records the number of red blood cells crossing the path of two laser beams, multiplied by their velocity (reported as changes in flux).
Test compounds are administered SC (0.1-0.6 ml/kg) in the nape of the neck. The CGRP-receptor agonist, hαCGRP is delivered IV (1 ml/kg) at a dose of 10 μg/kg.
To assess in vivo efficacy and duration of action, a control increase in facial blood flow is induced by administration of hαCGRP (10 μg/kg IV) 30 min prior (−0.5 hr) to drug delivery. Compound I is then administered at time zero (0 min) and repeat hαCGRP are delivered at 45 min intervals for ˜2 hr (data collected at 0.25, 1 and 1.75 hrs post-dose). Compound I is dosed at 0.003, 0.01 and 0.03 mg/kg, SC. Plasma samples are obtained just before each hαCGRP administration. Following testing, animals are returned to the transport cage which is placed on a temperature controlled surface that keep the animals warm until fully awake and ambulatory. Animals may be tested again after a 14-21 day rest and washout period.

[2] = Aqueous solubility, pH dependence; type: physicochemical
Experimental: Solid free base was mixed with carbonate, and ethanolamine buffers. The pH of a third sample was adjusted with HCl. The solids were mixed with the vehicles using a mixer that was enclosed within an incubator set to 25 C. After equilibration, samples of the supernatant were withdrawn, diluted as appropriate, and analyzed by HPLC.
Crystalline Compound I converted to a gelatinous phase during measurement of the pH solubility profile. The absence of a crystalline phase in equilibrium with water prevents a confident assessment of the pH range in which Compound I can be formulated as a thermodynamically stable solution. Efforts to generate a crystalline free base form of Compound I that can be equilibrated in water are ongoing.

[3] = Sample A: pH 4, 40 C, 0.1 mg/ml drug, 0.05 M succinate buffer
[4] = Sample B: pH 5, 25 C, 0.1 mg/ml drug, 0.05 M succinate buffer
[5] = Sample C: pH 5, 25 C/light, 0.1 mg/ml drug, 0.05 M succinate buffer
[6] = Sample D: pH 5, 60 C, 0.1 mg/ml drug, 0.05 M succinate buffer
[7] = Sample E: pH 5, 40 C, 0.1 mg/ml drug, 0.05 M succinate buffer
[8] = Sample F: pH 6, 40 C, 0.1 mg/ml drug, 0.05 M succinate buffer
[9] = Sample G: pH 4, 40 C, 40 mg/ml drug, 0.05 M succinate buffer
[10] = Sample H: pH 5, 40 C, 40 mg/ml drug, 0.05 M succinate buffer
[11] = Sample I: pH 6, 40 C, 40 mg/ml drug, 0.05 M succinate buffer
[12] = Sample J: pH 5, 40 C, 0.1 mg/ml drug, 0.01 M succinate buffer
[13] = marmoset, efficacy vs. exposure

## Cc1cc(C[C@@H](NC(=O)N2CCC(c3cc4ccccc4[nH]c3=O)CC2)C(=O)N2CCN(C3CCN(C)CC3)CC2)cc2cn[nH]c12 [Compound I, (R)—N-(3-(7-methyl-1H-indazol-5-yl)-1-(4-(1-methylpiperidin-4-yl)piperazin-1-yl)-1-oxopropan-2-yl)-4-(2-oxo-1,2-dihydroquinolin-3-yl)piperidine-1-carboxamide]
Solution state stability; [3]
  Area percent of Deg A at twelve weeks: 2.0 area percent
  Area percent of Deg C at twelve weeks: 10.5 area percent
Solution state stability; [4]
  Area percent of Deg A at twelve weeks: .5 area percent
  Area percent of Deg B at twelve weeks: 0.1 area percent
Solution state stability; [5]
  Area percent of Deg A at twelve weeks: 16.9 area percent
  Area percent of Deg B at twelve weeks: 2.9 area percent
  Area percent of Deg C at twelve weeks: 2.8 area percent
  Area percent of Deg D at twelve weeks: 5.2 area percent
  Area percent of Deg E at twelve weeks: 1.0 area percent
  Area percent of Deg F at twelve weeks: 7.7 area percent
  Area percent of Deg I at twelve weeks: 5.7 area percent
Solution state stability; [6]
  Area percent of Deg A at twelve weeks: 1.2 area percent
  Area percent of Deg C at twelve weeks: 55.0 area percent
Solution state stability; [7]
  Area percent of Deg A at twelve weeks: 1.9 area percent
  Area percent of Deg B at twelve weeks: 0.2 area percent
  Area percent of Deg E at twelve weeks: .1 area percent
Solution state stability; [8]
  Area percent of Deg A at twelve weeks: .4 area percent
  Area percent of Deg B at twelve weeks: 0.1 area percent
  Area percent of Deg E at twelve weeks: .1 area percent
Solution state stability; [9]
  Area percent of Deg A at twelve weeks: 4.9 area percent
  Area percent of Deg E at twelve weeks: 3.5 area percent
  Area percent of Deg G at twelve weeks: 0.1 area percent
  Area percent of Deg H at twelve weeks: .1 area percent
  Area percent of Deg J at twelve weeks: 0.1 area percent
Solution state stability; [10]
  Area percent of Deg A at twelve weeks: 1.2 area percent
  Area percent of Deg B at twelve weeks: 0.1 area percent
  Area percent of Deg E at twelve weeks: 0.0 area percent
  Area percent of Deg G at twelve weeks: 0.1 area percent
  Area percent of Deg J at twelve weeks: 0.0 area percent
Solution state stability; [11]
  Area percent of Deg A at twelve weeks: .2 area percent
  Area percent of Deg B at twelve weeks: 0.1 area percent
  Area percent of Deg C at twelve weeks: 0.0 area percent
  Area percent of Deg E at twelve weeks: 0.0 area percent
  Area percent of Deg G at twelve weeks: 0.1 area percent
  Area percent of Deg J at twelve weeks: 0.1 area percent
Solution state stability; [12]
  Area percent of Deg A at twelve weeks: 1.1 area percent
  Area percent of Deg B at twelve weeks: 0.1 area percent
  Area percent of Deg E at twelve weeks: .1 area percent
  Area percent of Deg H at twelve weeks: 0.5 area percent
Solution state stability; condition I in Table 2: pH 6, 40 C, 40 mg/ml drug, 0.05 M buffer
  degradation after 12 weeks at 40 C: 0.3%
[1]; 0.003 mg/kg SC, at 0.25 hr
  inhibition of CGRP-induced increases in facial blood flow: 20%
[1]; 0.003 mg/kg SC, later test times
  inhibition of CGRP-induced increases in facial blood flow: no effect
[1]; 0.01 mg/kg SC, across all post-dose test times
  inhibition of CGRP-induced increases in facial blood flow: 35-40%
[1]; 0.03 mg/kg SC, at 0.25, 1 and 1.75 hr post-dose
  inhibition of CGRP-induced increases in facial blood flow: 53-80%
[1]; [13]
  plasma levels associated with maximal efficacy: ≥ 25 nM
  plasma levels associated with significant in vivo efficacy: ≥ 8 nM
[2]; Partial titration of Compound I with HCl, pH = 8.5, 25 C
  solubility: 105000 µg/mL (≈ 164000 µM)
[2]; aqueous buffer, thermodynamic from solid, Carbonate buffer, pH = 10.4, 25 C, read-out: Solubility
  solubility: 200 µg/mL (≈ 313 µM)
[2]; aqueous buffer, thermodynamic from solid, Ethanolamine buffer, pH = 9.4, 25 C, read-out: Solubility
  solubility: 500 µg/mL (≈ 783 µM)
[2]; aqueous media, aqueous buffer, thermodynamic from solid, pH < 8.5, 25 C, read-out: Solubility
  solubility: > 300000 µg/mL
